# According to patent US9723837B2, “Imidazole derivatives useful for controlling microbial growth” (North Carolina State University, priority 2012, dated 2017):
# How the values were obtained:
# [1] = tested on: A. baumannii; assay: Broth microdilution MIC, A. baumannii; type: cell-based; details: Mueller-Hinton medium, 37° C., 16 hours
# Method: (§1) Each member of the pilot library was tested for antibiotic activity. Activity was quantified by measuring the MIC of each derivative against a variety of representative pathogenic bacterial strains using the microdilution protocol (CSLI, Performance Standards for Antimicrobial Susceptibility Testing; Nineteenth Informational Supplement, Clinical and Laboratory Standards Institute, Wayne, Pa., 2009). A. baumannii, E. coli, MSSA, and MRSA were used for initial evaluation. […] Compounds 4d, 4n, and 4o were determined to be the lead compounds.
# (§2) Broth Microdilution Method for MIC Determination.
# (§3) Overnight cultures of bacterial strain were subcultured to 5×10^5 CFU/mL in Mueller-Hinton medium (Fluka #70192). The resulting bacterial suspension was aliquoted (1.0 mL) into culture tubes. Samples were prepared from these culture tubes containing either 256 μg/mL of specified antibiotic or no test compound as a control. Samples were then aliquoted (200 μL) into the first row of wells of a 96-well microtiter plate in which subsequent wells were prefilled with 100 μL of Mueller-Hinton medium based 5×10^5 CFU/mL bacterial subculture. Using the multichannel pipettor set at 100 μL, row one wells were mixed 8-10 times. Then, 100 μL were withdrawn and transferred to row two. Row two wells were mixed 8-10 times followed by a 100 μL transfer from row two to row three. This procedure was used to serial dilute the rest of the rows of the microtier plate. The microtiter plate sample was then covered with a microtiter plate lid and then placed in a covered plastic container. The chamber was incubated under stationary conditions at 37° C.
# [2] = tested on: E. coli; assay: Broth microdilution MIC, E. coli; type: cell-based; details: Mueller-Hinton medium, 37° C., 16 hours
# Method: as §1, §2, §3
# [3] = tested on: MSSA; assay: Broth microdilution MIC, MSSA; type: cell-based, Staphylococcus aureus; details: Mueller-Hinton medium, 37° C., 16 hours
# Method: as §1, §2, §3
# [4] = tested on: MRSA ATCC BAA 44; assay: Broth microdilution MIC, MRSA ATCC BAA 44; type: cell-based, Staphylococcus aureus; details: for MIC MRSA: Table 2 pilot library screen; for MIC MRSA BAA 44: Table 3 nine-strain screen
# Method: as §1
# (§4) Once it was noted that compounds were active against MSSA and MRSA, the library was tested against various MRSA strains isolated from a nosocomial environment. MRSA has emerged as a major cause of illness and death in hospitals. These illnesses include lower respiratory tract infections, surgical site infections, cardiovascular infections and pneumonia. Nine different MRSA strains were obtained, and lead compounds 4d and 4o were screened for activity.
# as §2, §3
# [5] = tested on: MRSA ATCC BAA 1770; assay: Broth microdilution MIC, MRSA ATCC BAA 1770; type: cell-based, Staphylococcus aureus
# Method: as §4, §2
# as §3, with “The microtiter plate sample was then covered with a microtiter plate lid and then placed in a covered plastic container. The chamber was incubated under stationary conditions at 37° C.” left out
# [6] = tested on: MRSA ATCC BAA 1556; assay: Broth microdilution MIC, MRSA ATCC BAA 1556; type: cell-based, Staphylococcus aureus
# Method: as §4, §2
# as §3, with “The microtiter plate sample was then covered with a microtiter plate lid and then placed in a covered plastic container. The chamber was incubated under stationary conditions at 37° C.” left out
# [7] = tested on: MRSA ATCC BAA 811; assay: Broth microdilution MIC, MRSA ATCC BAA 811; type: cell-based, Staphylococcus aureus
# Method: as §4, §2
# as §3, with “The microtiter plate sample was then covered with a microtiter plate lid and then placed in a covered plastic container. The chamber was incubated under stationary conditions at 37° C.” left out
# [8] = tested on: MRSA ATCC BAA 1685; assay: Broth microdilution MIC, MRSA ATCC BAA 1685; type: cell-based, Staphylococcus aureus
# Method: as §4, §2
# as §3, with “The microtiter plate sample was then covered with a microtiter plate lid and then placed in a covered plastic container. The chamber was incubated under stationary conditions at 37° C.” left out
# [9] = tested on: MRSA ATCC BAA 1753; assay: Broth microdilution MIC, MRSA ATCC BAA 1753; type: cell-based, Staphylococcus aureus
# Method: as §4, §2
# as §3, with “The microtiter plate sample was then covered with a microtiter plate lid and then placed in a covered plastic container. The chamber was incubated under stationary conditions at 37° C.” left out
# [10] = tested on: MRSA ATCC 33591; assay: Broth microdilution MIC, MRSA ATCC 33591; type: cell-based, Staphylococcus aureus
# Method: as §4, §2
# as §3, with “The microtiter plate sample was then covered with a microtiter plate lid and then placed in a covered plastic container. The chamber was incubated under stationary conditions at 37° C.” left out
# [11] = tested on: MRSA ATCC 700789; assay: Broth microdilution MIC, MRSA ATCC 700789; type: cell-based, Staphylococcus aureus
# Method: as §4, §2
# as §3, with “The microtiter plate sample was then covered with a microtiter plate lid and then placed in a covered plastic container. The chamber was incubated under stationary conditions at 37° C.” left out
# [12] = tested on: MRSA ATCC 43300; assay: Broth microdilution MIC, MRSA ATCC 43300; type: cell-based, Staphylococcus aureus
# Method: as §4, §2
# as §3, with “The microtiter plate sample was then covered with a microtiter plate lid and then placed in a covered plastic container. The chamber was incubated under stationary conditions at 37° C.” left out
SMILES,MIC A. baumannii [1] [µg/mL],MIC E. coli [2] [µg/mL],MIC MSSA [3] [µg/mL],MIC MRSA [4] [µg/mL],MIC MRSA BAA 44 [4] [µg/mL],MIC MRSA BAA 1770 [5] [µg/mL],MIC MRSA BAA 1556 [6] [µg/mL],MIC MRSA BAA 811 [7] [µg/mL],MIC MRSA BAA 1685 [8] [µg/mL],MIC MRSA BAA 1753 [9] [µg/mL],MIC MRSA 33591 [10] [µg/mL],MIC MRSA 700789 [11] [µg/mL],MIC MRSA 43300 [12] [µg/mL]
CCCCCc1ccc(-n2c(N)nc(C)c2-c2ccccc2)cc1 [Compound 4o],16,>256,8,4,4,8,8,8,8,8,8,8,8
CCCCCCc1nc(N)n(-c2ccc(-c3ccccc3)cc2)c1-c1ccccc1 [Compound 4j],>256,>256,4,4,–,–,–,–,–,–,–,–,–
CCCCCCCCCCc1ccc(-n2c(N)nc(-c3ccccc3)c2-c2ccccc2)cc1 [Compound 4i],>256,>256,>256,>256,–,–,–,–,–,–,–,–,–
CCCCCCc1nc(N)n(-c2ccccc2)c1-c1ccc(C)cc1 [Compound 4l],>256,>256,8,4,–,–,–,–,–,–,–,–,–
CCCCCCCc1ccc(-n2c(N)nc(CCCCCC)c2-c2ccccc2)cc1 [Compound 4e],>256,>256,>256,128,–,–,–,–,–,–,–,–,–
Nc1nc(-c2ccccc2)c(-c2ccccc2)n1-c1ccccc1 [Compound 4c],>256,>256,>256,>256,–,–,–,–,–,–,–,–,–
CCCc1ccc(-n2c(N)nc(C)c2-c2ccccc2)cc1 [Compound 4n],64,64,32,32,–,–,–,–,–,–,–,–,–
Cc1ccc(-c2c(-c3ccccc3)nc(N)n2-c2ccccc2)cc1 [Compound 4m],>256,>256,>256,>256,–,–,–,–,–,–,–,–,–
CCCCCCCCCCc1ccc(-n2c(N)nc(C)c2-c2ccccc2)cc1 [Compound 4g],>256,>256,32,4,–,–,–,–,–,–,–,–,–
CCCCCCCc1ccc(-n2c(N)nc(-c3ccccc3)c2-c2ccccc2)cc1 [Compound 4f],>256,>256,>256,>256,–,–,–,–,–,–,–,–,–
CCCCCCc1nc(N)n(-c2ccccc2)c1-c1ccccc1 [Compound 4b],>256,>256,16,8,–,–,–,–,–,–,–,–,–
Nc1nc(-c2ccccc2)c(-c2ccccc2)n1-c1ccc(-c2ccccc2)cc1 [Compound 4k],>256,>256,>256,>256,–,–,–,–,–,–,–,–,–
Cc1nc(N)n(-c2ccccc2)c1-c1ccccc1 [Compound 4a],128,256,256,256,–,–,–,–,–,–,–,–,–
CCCCCCCc1ccc(-n2c(N)nc(C)c2-c2ccccc2)cc1 [Compound 4d],64,>256,4,2,2,8,4,2,4,4,8,4,2
CCCCCCCCCCc1ccc(-n2c(N)nc(CCCCCC)c2-c2ccccc2)cc1 [Compound 4h],>256,>256,>256,>256,–,–,–,–,–,–,–,–,–
